Assay results: patent US20230355645A1, “PHARMACEUTICAL COMPOSITION” (priority 2020, published 2023)

Key:
[1] = system: IL-6 production by Caco-2 cells; conditions: Caco-2 model, Couch et al. Clin. Sci. 2017; cited from earlier work
[2] = system: Caco-2 cells; test: MTT test, toxicity of CBD towards Caco-2; format: cell-based, human; conditions: CBD 3 and 5 μmol/l, 24 h incubation
Experimental: (§1) Human Caco-2 intestinal cells and Ishikawa endometrial cells were used in an in vitro study of the effect of cannabidiol (CBD) and sodium hyaluronate. In the first phase of the experiment, the safe concentration of CBD was determined based on the results of MTT measurements, a test for the reduction of 3-(4,5-dimethylthiazol-2-yl)-2,5-diphenyltetrazolium bromide (MTT) to the corresponding formazan. The test was performed according to M. D. Maines, L. G. Costa, D. J. Reed, et al. Current protocols in toxicology. New York: John Wiley & Sons. (1998).
(§2) Cells seeded in a 96-well plate at a concentration of 3×10^4 cells/ml, 100 μl/well, which were allowed to adhere for 24 hours, were subsequently incubated for 24 hours with CBD in a concentration range of 100 to 0.78 μmol/l dissolved in serum-free culture medium containing MEM (Minimum Essential Medium Eagle) supplemented by 2 mM glutamine, 1% NEAA (Non essential Amino Acid), and penicillin 100 IU/ml and streptomycin 100 ug/ml. At the end of the incubation period, 100 μl of MTT mixture (0.5 mg/mL in serum-free culture medium) was added for the period of 2 hours. At the end of the incubation period and aspiration of the MTT mixture, 100 μl of DMSO with NH3 (1%, v/v) were added. The absorbance was measured at 540 nm (INFINITE M200 PRO Tecan, Schoeller). […]

[3] = cited from earlier work
[4] = system: Ishikawa endometrial cells; test: MTT test, toxicity of CBD towards Ishikawa; format: cell-based, human; conditions: CBD 3 and 5 μmol/l, 24 h incubation
Experimental: as §1, §2

[5] = system: IL-8 production by Ishikawa cells; test: Production of IL-8 by Ishikawa cells following incubation with LPS (ELISA); format: cell-based, human; conditions: after LPS induction, both doses of CBD
Experimental: (§3) Cells (Caco-2, Ishikawa) were seeded in 6-well plates in culture medium containing MEM (Minimum Essential Medium Eagle) supplemented by 2 mM glutamine, 1% NEAA (Non essential Amino Acid), 10% FBS (Fetal Bovine Serum), penicillin 100 IU/ml and streptomycin 100 ug/ml and allowed to adhere for a minimum of 24 hours and then allowed to grow to confluence. They were then rinsed with PBS (2 ml) and treated with LPS (E. coli) 2 μg/ml in serum-free culture medium, 2 ml per well 3 times after 3 hours. After the last 3 hours of incubation, the test substances (CBD, CBD+HA in serum-free culture medium) were added to the cells and the samples were incubated for another 22 hours. The culture medium was then removed, frozen at −80° C. for downstream determination of pro-inflammatory cytokines (IL-6 and IL-8) by ELISA (Human ELISA Development Kit, Cat. Nos. 900-K16 and 900-K18, PeproTech, Baria, Czech Republic). The results are expressed relative to a control K (cells cultured only with serum-free culture medium), as a percentage of the control, expressed as mean±SEM. The measurement was performed in three independent experiments. KL are cells cultured with LPS. Testing was performed in triplicates.

[6] = system: IL-8 production by Caco-2 cells; test: Production of IL-8 by Caco-2 cells following incubation with LPS (ELISA); format: cell-based, human; conditions: Caco-2, after LPS induction, higher dose of CBD
Experimental: as §3

[7] = system: IL-6 production by Caco-2 cells; test: Production of IL-6 by Caco-2 cells following incubation with LPS (ELISA); format: cell-based, human; conditions: Caco-2, after LPS induction, both doses (3 and 5 μmol/l)
Experimental: as §3

[8] = system: IL-6 production by Ishikawa cells; test: Production of IL-6 by Ishikawa cells following incubation with LPS (ELISA); format: cell-based, human; conditions: after LPS induction, both doses (3 and 5 μmol/l)
Experimental: as §3

[9] = especially in solution by exposure to light, atmospheric oxygen and acidic pH; cited from earlier work
[10] = system: human volunteers; conditions: in vivo
[11] = system: Balb/c 3T3-L1 mouse fibroblasts; test: Cytotoxicity assay, neutral red incorporation; format: cell-based; conditions: 24 h
Experimental: Balb/c 3T3-L1 mouse fibroblasts (ECACC 86052701) were used in the cytotoxicity assay. The cells were cultured in D-MEM medium (Dulbecco's modification of Eagle's essential medium, Lonza) containing antibiotics (penicillin 100 IU/ml, streptomycin 100 ug/ml), enriched with 10% inactivated calf serum, pH 7.2.
Suppositories prepared according to Example 1 were tested. The positive control (PK) was sodium lauryl sulfate (SLS), the cell control was serum-free culture medium.
The suppository extract was prepared in the ratio of 0.2 g of sample per 1 ml of extracting agent (serum-free D-MEM) according to ČSN EN ISO 10993-12 (2012). The extraction was performed for 24 hours at 37° C., in a closed culture flask under aseptic conditions according to ČSN EN ISO 10993-5 (2012). The resulting 100% extract was further diluted with serum-free culture medium.
Flat bottom tissue culture plates of 8×12 wells were used to culture the cells. The cells were suspended at a concentration of 10^5 cells in 1 ml of the culture medium, inoculating 0.1 ml of the suspension into 1 well. Culture conditions 37° C., 7.5% CO2. Pre-cultivation to obtain a cell culture monolayer was performed 24 hours before exposure to the test material. The cultures were established in quadruplets for the test extracts and for the controls. After 24 hours of precultivation, the culture medium and 0.2 ml of the extract from the test sample, or its serial dilution, respectively. This was followed by culture for 24 hours at 37° C., 7.5% CO2 and staining with neutral red (0.2 ml of neutral red solution per well, incubation for 3 hours, ethanol/acetic acid fixation solution). After completion of the culture, cytotoxicity was determined quantitatively (fluorimetrically) based on the incorporation of neutral red as a vital dye.
The fluorimetric method for determining cytotoxicity is based on the incorporation of a vital dye into living cells and the detection of fluorescence in an excitation (530 nm) and emission filter (590 nm) system using cold light. The degree of cytotoxicity is expressed in % of the detected fluorescence in the culture containing the test extract relative to the control culture in the absence of the test extract. Fluorescence is detected in FSU units of fluorescence intensity. For quantification, the viability of the culture is calculated as follows:
culture viability (%)=(average FSU of the test sample−average FSU of the blank)/(average FSU of the control−average FSU of the blank)
The mean fluorescence values for each group represent the average fluorescence value from all four wells after subtracting the average fluorescence value of the eight wells with fixation solution (blank). The control is serum-free culture medium.

In the case of `C=C(C)[C@@H]1CCC(C)=C[C@H]1c1c(O)cc(CCCCC)cc1O` [CBD, Cannabidiol], the “increase in IL-6 concentration compared to the original value after induction of inflammation” value [1] is given as “more than 70%”, the “toxicity by MTT values” [2] is given as “sub-toxic” and the “log P” value [3] is given as 6-7. The “toxicity by MTT values” [4] was “sub-toxic”, the IL-8 levels [5] was “decrease” and the IL-8 concentration [6] was “at the same level”. For the same compound, the IL-6 levels [7] was “significant decrease”, the IL-6 levels [8] was “significant decrease” and the stability [9] was “prone to degradation”.
In the case of `CCCCCCCCCCCCOS(=O)(=O)[O-].[Na+]` [PK-SLS, sodium lauryl sulfate], the “Total number of reactions, Reaction yes/no” value ([10]; human) is reported as 30/30, the Reaction yes/no [10] is reported as “YES” and the “Mean fluorescence (FSU)” value ([11]; Test 1, 1 μg/ml) is reported as 2743.4 FSU. The “Relative to control %” value ([11]; Test 1, 1 μg/ml) was 98.8%, the “Mean fluorescence (FSU)” value ([11]; Test 1, 10 μg/ml) was 891.1 FSU and the “Relative to control %” value ([11]; Test 1, 10 μg/ml) was 32.1%. For the same compound, the “Mean fluorescence (FSU)” value ([11]; Test 1, 20 μg/ml) was 113.9 FSU, the “Relative to control %” value ([11]; Test 1, 20 μg/ml) was 16.0% and the “Mean fluorescence (FSU)” value ([11]; Test 2, 1 μg/ml) was 3187.8 FSU. For the same compound, the “Relative to control %” value ([11]; Test 2, 1 μg/ml) was 98.9%, the “Mean fluorescence (FSU)” value ([11]; Test 2, 10 μg/ml) was 542.5 FSU and the “Relative to control %” value ([11]; Test 2, 10 μg/ml) was 16.8%. For the same compound, the “Mean fluorescence (FSU)” value ([11]; Test 2, 20 μg/ml) was 326.3 FSU and the “Relative to control %” value ([11]; Test 2, 20 μg/ml) was 10.1%.
